Experimental data as given in patent US7585839B2, “Medical uses of intercellular communication facilitating compounds” (Zealand Pharma A/S, priority 2001, dated 2009).

Assays:
[1] = tested on: alkaline phosphatase (ALP) activity of human osteoblasts; assay: Alkaline phosphatase assay, human osteoblasts; format: cell-based
Method: Day 1: Cells were plated in 96-well plates at a conc. of 8000 cells/well (hOB) or 3000 cells/well (ROS) in 200 μl normal culture medium.
Day 2: Medium was changed on the cells.
Day 4: (Day 3 for ROS): Cells were washed with 200 μl MEM, 0.1% BSA (Sigma, Cat.No. A-9418).
Day 8: (Day 5 for ROS): Alkaline Phosphatase (ALP) assay is a colorimetric endpoint method for measuring enzyme activity, and was done using Alkaline Phosphatase Kit (Sigma, Cat.No. 104-LL): Cells were washed once with 200 μl PBS+Ca,Mg. 100μl Alkaline Buffer Solution was added to each well and plate was placed at 37° C. for 10 min. 100 μl Substrate Solution was added to each well and plate was incubated at 37° C. for 30 min. 100 μl 2.0 N NaOH was added to each well to stop the reaction. Absorbance was measured using a plate reader at 405 nm.

ROS 17/2.8 cells = assay: Intercellular calcium waves after mechanical stimulation, ROS 17/2.8 cells; format: cell-based, rat; conditions: 48 hours hypoxia 3-6% O2; 10^−8 M, 10 minutes; 2.2 cells before
Method: ROS 17/2.8 cells: Cells were cultured in 100 mm dishes at 37° C. with 5% CO2 and medium change every 2-3 days. ROS medium (all reagents obtained from Life Technologies): MEM (Cat.No. 31095) supplemented with 10% heat-inactivated calf serum (Cat.No. 16170), 1% NEAA (Cat.No. 11140), 1% Sodium Pyruvate (Cat.No. 11360), 1% L-Glutamine (Cat.No. 25030) and 0.1% Penicillin/Streptomycin (Cat,No. 15140). For video imaging experiments, cells were plated on coverslips at 2-3×10^5 cells/coverslip and cultured for 2-3 days before use.
The cells cultured on coverslips were loaded with 5 μM fura-2-AM (Molecular Probes, Cat.No. F-1221), for 30 minutes at 37° C., and incubated in fresh medium for 20 minutes. Coverslips were then affixed to a PDMI-2 culture chamber (Medical Systems Corp.), maintained at 37° C. with superfused CO2, on a Zeiss Axiovert microscope. Intercellular calcium waves were induced by mechanical stimulation of a single cell using a borosilicate glass micro pipette affixed to an Eppendorf 5171 micromanipulator. Imaging was performed using a MetaMorph imaging system (Universal Imaging). The excitation light (340 and 380 nm) was provided by a monochromator (T.I.L.L. Photonics GmbH). Images were acquired with an intensified CCD camera (Dage MTI) and digitized with a Matrox MVP image processing board.

[2] = tested on: reentry ventricular tachycardia; assay: Ventricular reentry arrhythmias in dogs after coronary artery occlusion; format: in vivo, dog; conditions: after the lowest dose (bolus 0.1 μg/kg; infusion 2 ng/kg/min) i.v.
Method: Three dogs were studied in the anesthetized, open chest state to facilitate electrode placement for mapping. α-chloralose was given as a bolus (200 mg/kg) and then a constant infusion at 8 mg/kg/hr (dissolved in polyethylene glycol, MW=200). The femoral vein and artery was cannulated for administration of fluid and drugs and for measurement of ascending aortic pressure, respectively.
The sinus node was clamped and the atrial appendage was paced with a programmable stimulator with constant current outputs at two times diastolic threshold. Pacing rate was ≧200 b/min to control heart rates. […] Late ventricular diastolic threshold was measured during each intervention; the pacing current was four times threshold.
Test sites were chosen along the shaft of 16 pole needles (J. Kassell, Fayetteville, N.C.); each pole completely surrounds the needle shaft to prevent directionality of needle orientation from recording of adjacent Purkinje strands. Six bipolar electrograms (1 mm spacing) were recorded sequentially down the shaft of the needle by amplifying up to 1000 times, filtering from 3-1300 Hz and recording via oscilloscope during atrial pacing. Four intramural electrograms are recorded on each multipolar needle. […] Inter-needle distance measured on epicardium varies over 6-10 mm in dogs weighing 12-16 kg. […]

human osteoblastic cells = assay: DDT-induced uncoupling in human osteoblast cells, Lucifer Yellow microinjection; format: cell-based; conditions: after DDT 13 μM 60 minutes; 10^−8 mol/l, 10 minutes; p<0.01
Method: Human osteoblast cells: Cells were isolated from human bone marrow obtained by puncture of the posterior iliac spine of healthy volunteers (aged 20-36): 10-15 ml marrow material was collected in 15 ml PBS+Ca, Mg (Life Technologies, Cat.No. 14040) with 100 U/ml Heparin (Sigma, Cat.No. H-3149). The mononuclear fraction of the marrow was isolated on a Lymphoprep gradient (Nycomed Pharma, Cat.No. 1001967), by centrifugation at 2200 rpm for 30 min. After harvesting, the mononuclear fraction was washed once with culture medium and centrifuged at 1800 rpm for 10 min. Subsequently cells were counted and plated in culture medium at 8×10^6 cells/100 mm dish. hOB medium (all reagents obtained from Life Technologies): MEM w/o Phenol Red w/Glutamax (Cat.No. 041-93013) supplemented with 10% heat inactivated fetal calf serum (Cat.No. 10106) and 0.1% Penicillin/Streptomycin (Cat.No. 15140). Medium was changed the following day and the cells were cultured at 37° C. in 5%CO2 with medium change every 7 days. After 3-4 weeks of culture the cells had reached 70% confluence. The medium was then supplemented with 100 nM Dexamethasone (Sigma, Cat.No. D-4902) for 7 days. Cells were then plated for video imaging experiments: a 25 mm #1 glass coverslip was placed in a 35 mm dish (or each well of a 6-well multidish), cells were plated at 2.5×10^5 cells/coverslip and cultured for 2-3 days before use. […]

For “Ac-D-Tyr-D-Pro-D-4Hyp-Gly-D-Ala-Gly-NH2 [Compound 2]”, the “stimulation of ALP activity during hypoxia, greater than during normoxia” value ([1]; 5% O2 four days, 10^−11 to 10^−8 mol/l) was “about 15%”, the ALP activity ([1]; normal culture conditions, 1×10^−13 to 1×10^−6) was “increased ALP activity at most of the concentrations tested” and the “average number of cells in the calcium wave” value (ROS 17/2.8 cells) was 5.4 cells. The “inducibility of epicardial reentry VT” value [2] was “no longer inducible” and the “cell-to-cell dye transfer, median number of cells” value (human osteoblastic cells) was 8.3 cells.
